Data reported in patent US4470971A, “Renin inhibitory peptides having His^13” (Merck & Co., Inc., priority 1982, dated 1984).
Where a SMILES comes first, the peptide text is derived from it. [ ]: non-standard residue; d: D form. The star is where a group is joined. Sta = CC(C)C[C@H](N)[C@@H](O)CC(=O)O; Isovaleryl = CC(C)CC(=O)*; Isobutyryl = CC(C)C(=O)*

Target: T1, Human renin (Homo sapiens, UniProt P00797)
T1 construct: Human plasma (lyophilized) was used as the source of human substrate and human renin; from tissue; host or cells: human plasma (lyophilized)
T1 sequence (P00797 67-406): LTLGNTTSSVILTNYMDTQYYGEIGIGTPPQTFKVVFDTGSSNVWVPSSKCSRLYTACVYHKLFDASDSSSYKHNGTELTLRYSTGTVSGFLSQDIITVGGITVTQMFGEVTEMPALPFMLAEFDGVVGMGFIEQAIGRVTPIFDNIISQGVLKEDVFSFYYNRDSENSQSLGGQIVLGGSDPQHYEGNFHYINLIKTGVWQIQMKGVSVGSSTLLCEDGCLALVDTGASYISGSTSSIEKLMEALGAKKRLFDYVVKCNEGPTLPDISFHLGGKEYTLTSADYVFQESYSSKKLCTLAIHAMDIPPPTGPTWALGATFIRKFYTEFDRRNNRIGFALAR
Assay: human renin assay, radioimmunoassay of angiotensin I in human plasma (Haber et al.)
Format: biochemical
Settings: for IC50: lyophilized human plasma as source of human substrate and human renin, read-out: I50 (M) Human renin
Protocol: In order to illustrate the pig renin inhibition and human renin inhibition of the peptide inhibitor of Example 1, the peptide was evaluated in the pig renin inhibition assay described in Rich et al., J. Med. Chem. 23:27, 1980, and was further evaluated in the human renin assay based on the method of Haber et al., J. Clin. Endocrinol. 29:1349, 1969. The latter method employs a radioimmunoassay technique to measure the amount of angiotensin I product created by renin cleavage of its substrate. Human plasma (lyophilized) was used as the source of human substrate and human renin. I50 values were obtained by plotting data at several inhibitor concentrations.

Row | IC50 [M] | inhibition at 1 µM (at 1.0 × 10^-6 M) [%] | SMILES
1 | 7.3e-08 |  | CC(C)C[C@H](NC(=O)[C@H](Cc1c[nH]cn1)NC(=O)[C@H](Cc1ccccc1)NC(=O)[C@@H]1CCCN1C(=O)[C@H](Cc1c[nH]cn1)NC(=O)C(C)C)[C@@H](O)CC(=O)N[C@H](C(=O)N[C@@H](Cc1c[nH]cn1)C(=O)NCC(N)=O)C(C)C [N-Isobutyryl-L-histidyl-L-prolyl-L-phenylalanyl-L-histidyl-(3S,4S)-statyl-L-valyl-L-histidyl-L-glycyl amide] (Isobutyryl-HPFH[Sta]VHG-NH2)
2 |  | 20 | CC(C)CC(=O)N[C@H](C(=O)N[C@H](C(=O)N[C@@H](CC(C)C)[C@@H](O)CC(=O)N[C@@H](C)C(=O)N[C@@H](CC(C)C)[C@@H](O)CC(=O)O)C(C)C)C(C)C [Pepstatin, iso-valeryl-Val--Val--Sta--Ala--Sta, reference compound] (Isovaleryl-VV[Sta]A[Sta]-OH)
3 | 7.3e-09 |  | CC[C@H](C)[C@H](NC(=O)C[C@H](O)[C@H](CC(C)C)NC(=O)[C@H](Cc1c[nH]cn1)NC(=O)[C@H](Cc1ccccc1)NC(=O)[C@@H]1CCCN1C(=O)[C@H](Cc1c[nH]cn1)NC(=O)CC(C)C)C(=O)N[C@@H](Cc1c[nH]cn1)C(N)=O [iso-Valeryl-His-Pro-Phe-His-Sta-Ile-His-NH2] (Isovaleryl-HPFH[Sta]IH-NH2)
